In patent publication US20090005253A1, “Double Hybrid System Based on Gene Silencing by Transcriptional Interference” (AVENTIS PHARMA S.A., priority 2004, published 2009):

System: Fe65/App interaction
Assay: growth restoration test on solid medium, yRB49 (rY2H UI interference system) expressing the Fe65/App interaction
Format: cell-based
Conditions: medium free of histidine, 1 mM 3-AT; 1 μl at 0.125%, 0.25%, 0.5% or 1% at center of dish; 30° C., 48 hours
Experimental: The strain containing the UI transcriptional interference system (yRB49) and cotransformed with the plasmids pRB34 and pRB35 (Fe65/App interaction) was plated out onto medium without histidine and containing 1 mM of 3-AT. […] The dishes were incubated at 30° C. for 48 hours.
The strain containing the UI transcriptional interference system (yRB49) was cotransformed with the pairs of plasmids pRB34 and pRB35 (Fe65/App interaction) or pDBT-mdm2 and pVP16-p53Nt (mdm2/p53 interaction). The strain containing the plasmids pRB34 and pRB35 (Fe65/App interaction) was plated out onto 5 dishes of medium without histidine supplemented with 1 mM of 3-AT (top row); the strain containing the plasmids pDBT-mdm2 and pVP16-p53Nt (mdm2/p53 interaction) was similarly plated out onto 5 dishes of medium without histidine supplemented with 20 mM of 3-AT (bottom row).
A control dish was prepared for each interaction by depositing 1 μl of histidine at 0.125% w/v at the center of this dish. A different molecule, A, B, C or D, was deposited onto each of the other 4 dishes, according to the following scheme: in the upper left corner, 1 μl of the product at a concentration of 0.1 mM is deposited; in the upper right corner, 1 μl of the same product at a concentration of 1 mM is deposited; at the center, 1 μl of this product at 10 mM is deposited. […]

N[C@@H](Cc1c[nH]cn1)C(=O)O [histidine]
restoration of growth around the deposit by nutrient (FIG. 8C): capable of restoring the growth
